Where “and” joins values, the source holds several entries; their conditions need not be identical. Identical values can stand only once.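 Cells were grown in 96-well plates and exposed to each compound for 48 hours at five concentrations; endpoints were interpolated linearly between bracketing concentrations, or set to the highest concentration if not reached. GI50 = concentration required for 50% inhibition of growth.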 Calls of active or inactive are those of the source. No stated cut-off is given here; in the data, active = GI50 up to about 1.1 µM and inactive = higher.
What was measured:
Test in all cases: DTP human tumour cell line panel, 48 h
[1] = tested on: ACHN
[2] = tested on: HL-60
[3] = tested on: HT-29
[4] = tested on: OVCAR-5
[5] = tested on: SR
[6] = tested on: Malme-3M
[7] = tested on: OVCAR-8
[8] = tested on: IGROV-1
[9] = tested on: HOP-62
[10] = tested on: SK-MEL-28
[11] = tested on: MOLT-4
[12] = tested on: KM12
[13] = tested on: UACC-257
[14] = tested on: SK-MEL-5
[15] = tested on: SK-MEL-2
[16] = tested on: LOX IMVI
[17] = tested on: MCF7

Measured: GI50

Cc1cc(N(CCC#N)CCC#N)ccc1/C=C1\N=C(c2cc([N+](=O)[O-])ccc2Cl)N(c2cccc(Cl)c2)C1=O
inactive: [1] > 100 µM | [2] > 100 µM | [3] 45.2 µM | [4] > 100 µM | [5] 94.4 µM | [6] > 100 µM | [7] > 100 µM | [8] > 100 µM | [9] > 100 µM | [10] > 100 µM | [11] 79.6 µM | [12] > 100 µM | [13] > 100 µM | [14] > 100 µM | [15] > 100 µM

O=C1[C@@H]2C(c3ccccc3F)=NO[C@@H]2C(=O)N1c1ccc(Cc2ccc(N3C(=O)[C@H]4C(c5ccccc5F)=NO[C@H]4C3=O)cc2)cc1
inactive: [16] > 100 µM | [1] > 100 µM | [2] 14.4 µM | [3] > 100 µM | [4] > 100 µM | [5] 34.1 µM | [6] > 100 µM | [7] > 100 µM | [8] > 100 µM | [9] > 100 µM | [10] > 100 µM | [11] 19.6 µM | [12] > 100 µM | [13] > 100 µM | [14] > 100 µM | [15] > 100 µM

Cc1ccc(O)c(-c2cscn2)c1
inactive: [16] 27.7 µM | [1] 32 µM | [2] 1.81 µM | [3] 62.5 µM | [4] 11.2 µM | [5] 40.4 µM | [6] > 100 µM | [7] 42.9 µM | [8] 55.7 µM | [9] 33.3 µM | [11] 35.1 µM | [13] 73.1 µM | [14] 23.7 µM | [17] 39.9 µM | [15] 64 µM

CCOC(=O)CCn1ncc(Cl)c(Cl)c1=O
inactive: [16] 8.53 µM | [1] 17 µM | [2] 2.67 µM | [3] 4.24 µM | [4] 16.7 µM | [5] 2.89 µM | [6] 14.2 µM | [7] 5.98 µM | [8] 11.1 µM | [9] 21.4 µM | [10] 2.65 µM | [11] 3.13 µM | [12] 4.86 µM | [13] 11.2 µM | [14] 11.8 µM | [15] 8.53 µM

COc1cc(Nc2cnc3ccc(C(F)(F)F)cc3n2)cc(OC)c1OC
inactive: [16] 4.02 µM | [1] 9.95 µM | [2] 9.71 µM | [3] 12.2 µM | [4] > 100 µM | [5] > 100 µM | [6] > 100 µM | [7] > 100 µM | [9] 23.9 µM | [10] > 100 µM | [11] 39.7 µM | [13] 9.84 µM | [15] 24.7 µM

COC(=O)CC(C(C(C)=O)C(=O)OCc1ccccc1)N1C(=O)OC(c2ccccc2)C1c1ccccc1 (stereo unspecified)
inactive: [16] 78.5 µM | [1] > 100 µM | [2] 37.7 µM and 32.2 µM | [3] > 100 µM | [5] 42.7 µM and 42.5 µM | [6] > 100 µM | [7] 70.3 µM and 71.1 µM | [8] > 100 µM | [9] 54.1 µM | [10] 65.9 µM and 97.7 µM | [11] 36.4 µM and 42.3 µM | [12] 42 µM and 35.6 µM | [14] 60.1 µM | [15] 61.5 µM and 83.4 µM

Nc1ncnc2c1ncn2C1CC(OCc2ccccc2[N+](=O)[O-])C(CO)O1 (stereo unspecified)
inactive: [16] 20.9 µM | [1] 13.3 µM | [2] 12.7 µM | [3] 17.5 µM | [4] > 50 µM | [5] 10.8 µM | [6] 20 µM | [7] 23.8 µM | [8] 28.9 µM | [9] 24.3 µM | [10] 23.8 µM | [11] 18.4 µM | [12] 20 µM | [13] 18.5 µM | [15] 22.4 µM

C1=Cc2nc1c(-c1ccccc1)c1nc(c(-c3ccccc3)c3ccc([nH]3)c(-c3ccccc3)c3ccc([nH]3)c2-c2ccccc2)C=C1 [TETRAPHENYLPORPHYRIN]
inactive: [16] > 100 µM | [1] > 100 µM | [2] > 100 µM | [3] > 100 µM | [4] > 100 µM | [5] > 100 µM | [6] > 100 µM | [7] > 100 µM | [8] > 100 µM | [9] > 100 µM | [10] > 100 µM | [11] > 100 µM | [12] > 100 µM | [13] > 100 µM | [14] > 100 µM | [15] > 100 µM

COc1cc2cc[n+]3c4cc(OC)c(OC)cc4c(C)cc3c2cc1OC
inactive: [16] > 100 µM | [1] > 100 µM | [2] > 100 µM | [3] > 100 µM | [4] > 100 µM | [5] > 100 µM | [6] > 100 µM | [7] > 100 µM | [8] > 100 µM | [9] > 100 µM | [10] > 100 µM | [11] > 100 µM | [12] > 100 µM | [13] 88.7 µM | [14] > 100 µM | [15] > 100 µM

From ChEMBL document CHEMBL1201862, “PubChem BioAssay data set” (2004)
